Experimental findings from PubChem BioAssay (NCI) are described below.

Some test systems named below: CCRF-CEM leukemia; SF-268 CNS; NCI-H460 lung; MALME-3M melanoma; T-47D breast; NCI-H226 lung; KM12 colon; RPMI-8226 leukemia; LOX IMVI melanoma; UACC-62 melanoma.
What all share (assay): inhibition of tumour cell growth, NCI panel, 48 h

Several values for one entry are separate records, joined by “and”; a condition that tells them apart may be missing. Equal entries are not always repeated.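 Step 1: Grow cells in 96-well plates. Step 2: Expose to compound for 48 hours at 5 concentrations. Step 3: Interpolate endpoints linearly; if unreached, use highest concentration. GI50 marks 50% less growth. Definition used: TGI = concentration required for complete inhibition of growth.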

Regarding `Cc1ccc(/C=C(/C#N)n2nnc3ncccc32)cc1`, the GI50 in the test on CCRF-CEM leukemia was 3.08 µM; in the test on SF-268 CNS, 3.08 µM; in the test on NCI-H460 lung, 2.69 µM; in the test with MALME-3M melanoma it was 1.76 µM; in the test with T-47D breast it was 1.92 µM; in the test on NCI-H226 lung, 4.46 µM. Also, the GI50 with KM12 colon is 2.11 µM; with RPMI-8226 leukemia, 3 µM; in the test with LOX IMVI melanoma, 3.08 µM; in the test on UACC-62 melanoma, 3.2 µM. The TGI in the test with CCRF-CEM leukemia is more than 100 µM; in the test on SF-268 CNS it was 15.1 µM; with NCI-H460 lung it was 7.76 µM; in the test on MALME-3M melanoma, 26 µM; in the test with T-47D breast, 15.8 µM; in the test on NCI-H226 lung, 28 µM. In addition, the TGI with KM12 colon stood at 14.9 µM; with RPMI-8226 leukemia it was 9.73 µM; with LOX IMVI melanoma, 11.3 µM; in the test with UACC-62 melanoma it was 15.8 µM.
On to `COC(=O)CC1C2(C)C3=C(C)C(c4ccoc4)CC3OC2C2OC(=O)C3(C)C=CC(=O)C1(C)C23` (centres undefined), for which the TGI stood at 2.17 µM in the test on CCRF-CEM leukemia; 7.62 µM in the test with SF-268 CNS; 3.26 µM in the test on NCI-H460 lung; 2.48 µM in the test on MALME-3M melanoma; 2.92 µM in the test with T-47D breast; 7.68 µM in the test with NCI-H226 lung. Moreover, the TGI with KM12 colon came to 3.55 µM; in the test on RPMI-8226 leukemia, 1.16 µM; in the test with LOX IMVI melanoma, 2.3 µM; in the test on UACC-62 melanoma, 3.79 µM.
In the case of `Cc1ccc(S(=O)(=O)OCC(=O)Nc2ccc(C(=O)O)c(O)c2)cc1`, the GI50 with CCRF-CEM leukemia is 13.7 µM; with SF-268 CNS it was 19.5 µM; with NCI-H460 lung it was 124 µM; with MALME-3M melanoma, 32.3 µM; with T-47D breast, 43.2 µM; in the test on NCI-H226 lung, 30.9 µM. Besides, the GI50 was 73.6 µM with KM12 colon, 138 µM with RPMI-8226 leukemia, 20.8 µM in the test with LOX IMVI melanoma and 20.9 µM in the test with UACC-62 melanoma. For the same molecule, the TGI with CCRF-CEM leukemia came to 69 µM; with SF-268 CNS it was 53.5 µM; in the test with NCI-H460 lung, 292 µM; in the test on MALME-3M melanoma, 115 µM; in the test on T-47D breast, 133 µM; with NCI-H226 lung, 139 µM. In addition, the TGI in the test with KM12 colon turned out to be 199 µM; in the test on RPMI-8226 leukemia, 346 µM; in the test on LOX IMVI melanoma, 61 µM; in the test with UACC-62 melanoma it was 61.4 µM.
Turning to `CCSc1nc(NC(C)c2ccccc2)c2cnn(CO)c2n1` (centres undefined), the GI50 in the test on CCRF-CEM leukemia was more than 100 µM; in the test on SF-268 CNS, more than 100 µM; in the test on NCI-H460 lung, 32.8 µM; in the test on MALME-3M melanoma, 29.6 µM; in the test with T-47D breast, more than 100 µM; in the test with NCI-H226 lung, 47 µM. For the same molecule, the GI50 in the test with KM12 colon was 42.1 µM; in the test with RPMI-8226 leukemia, more than 100 µM; in the test with LOX IMVI melanoma, 37 µM; in the test on UACC-62 melanoma, 26.6 µM. Also, the TGI is more than 100 µM in the test on CCRF-CEM leukemia; more than 100 µM with SF-268 CNS; more than 100 µM in the test with NCI-H460 lung; 84.9 µM in the test with MALME-3M melanoma; more than 100 µM in the test on T-47D breast; more than 100 µM with NCI-H226 lung. For the same molecule, the TGI with KM12 colon, in the test with RPMI-8226 leukemia, in the test on LOX IMVI melanoma and in the test on UACC-62 melanoma was more than 100 µM each time.
Turning to `O=C(Nc1ccn(C2CC(I)C(COC(c3ccccc3)(c3ccccc3)c3ccccc3)O2)c(=O)n1)c1ccccc1` (centres undefined), the TGI in the test with CCRF-CEM leukemia was 17.3 µM; in the test on SF-268 CNS it was 17.9 µM; in the test with NCI-H460 lung it was 14.1 µM; in the test with MALME-3M melanoma it was 13.4 µM; in the test on T-47D breast, 21.5 µM; in the test on NCI-H226 lung it was 12.8 µM. In addition, the TGI with KM12 colon stood at 24 µM; in the test on RPMI-8226 leukemia, 17 µM; in the test on LOX IMVI melanoma, 14.7 µM; in the test on UACC-62 melanoma it was 15.4 µM.
Regarding `CCNC(=O)Oc1ccc(/C(=C(\C)c2ccc(Cl)cc2)c2ccc(OCCN(CC)CC)cc2)cc1`, the GI50 with CCRF-CEM leukemia was 3.38 µM; in the test on SF-268 CNS, 5.99 µM; in the test on NCI-H460 lung, 2.09 µM; with MALME-3M melanoma, 1.7 µM; in the test on T-47D breast, 2.16 µM; with NCI-H226 lung it was 17.2 µM. For the same molecule, the GI50 in the test with KM12 colon is 4.22 µM; with RPMI-8226 leukemia it was 2.4 µM; with LOX IMVI melanoma, 1.94 µM; in the test with UACC-62 melanoma, 2.07 µM. In addition, the TGI in the test on CCRF-CEM leukemia is 12.2 µM; in the test on SF-268 CNS, 21 µM; in the test on NCI-H460 lung, 4.16 µM; in the test on MALME-3M melanoma, 3.61 µM; in the test with T-47D breast, 12.5 µM; with NCI-H226 lung it was 39.5 µM. In addition, the TGI came out at 15.5 µM in the test with KM12 colon, 6 µM in the test with RPMI-8226 leukemia, 4.02 µM with LOX IMVI melanoma and 4 µM in the test on UACC-62 melanoma.
On to `C=C1C[C@@H](O)[C@@H](Br)C(C)(C)[C@]12CCC(C)(Br)C(Cl)C2` (some centres undefined), for which the GI50 in the test on CCRF-CEM leukemia was 1.05 µM; in the test on SF-268 CNS, 19.1 µM; in the test on NCI-H460 lung, 18 µM; in the test with MALME-3M melanoma, 16.5 µM; in the test with T-47D breast, 19 µM; with NCI-H226 lung it was 15.6 µM. Also, the GI50 in the test with KM12 colon is 0.28 µM; in the test on RPMI-8226 leukemia it was 12.6 µM; in the test on LOX IMVI melanoma, 18.1 µM; with UACC-62 melanoma, 15.6 µM. Besides, the TGI in the test on CCRF-CEM leukemia is > 50 µM and 14.4 µM; in the test with SF-268 CNS, > 50 µM and 35.8 µM; with NCI-H460 lung, > 50 µM and 32.4 µM; in the test on MALME-3M melanoma, > 50 µM and 33.4 µM; in the test on T-47D breast, > 50 µM and 49.3 µM; with NCI-H226 lung, 50 µM and 29.9 µM. Besides, the TGI in the test with KM12 colon was 16.7 µM and 10.5 µM; in the test with RPMI-8226 leukemia, 50 µM and 33.3 µM; in the test with LOX IMVI melanoma it was > 50 µM and 35 µM; in the test on UACC-62 melanoma, > 50 µM and 29.3 µM.
For `Cc1cncc(-c2nc(NCCc3c[nH]c4ccccc34)c3ncn(C(C)C)c3n2)c1`, the GI50 in the test on CCRF-CEM leukemia was 2.99 µM; with SF-268 CNS, 5.93 µM; in the test with NCI-H460 lung it was 3.33 µM; with MALME-3M melanoma it was 2.08 µM; in the test on T-47D breast, 4.98 µM; in the test on NCI-H226 lung, 4.69 µM. Also, the GI50 in the test with KM12 colon was 3.36 µM; with RPMI-8226 leukemia, 2.28 µM; in the test on LOX IMVI melanoma, 4.61 µM; in the test with UACC-62 melanoma it was 3.3 µM. The TGI in the test on CCRF-CEM leukemia is 9.84 µM; with SF-268 CNS, 38.6 µM; in the test on NCI-H460 lung, 13.3 µM; in the test on MALME-3M melanoma, 5.71 µM; with T-47D breast, 19.6 µM; in the test on NCI-H226 lung, 20.5 µM. Moreover, the TGI was 12.8 µM in the test with KM12 colon, 5.23 µM in the test on RPMI-8226 leukemia, 15.5 µM in the test with LOX IMVI melanoma and 12.1 µM with UACC-62 melanoma.
Take `C[C@@H]1CC[C@H]2[C@@H](C)C(OC/C=C/COC3O[C@@H]4O[C@@]5(C)CC[C@H]6[C@H](C)CC[C@@H]([C@H]3C)[C@@]46OO5)O[C@@H]3O[C@@]4(C)CC[C@@H]1[C@]32OO4` (some centres undefined): the GI50 is less than 0.01 µM in the test on CCRF-CEM leukemia; 0.045 µM in the test with SF-268 CNS; less than 0.01 µM in the test on NCI-H460 lung; 0.0428 µM in the test with MALME-3M melanoma; less than 0.01 µM with T-47D breast; less than 0.0206 µM with NCI-H226 lung. The GI50 in the test with KM12 colon was less than 0.01 µM; with RPMI-8226 leukemia it was less than 0.01 µM; with LOX IMVI melanoma it was less than 0.01 µM; with UACC-62 melanoma, 0.0363 µM. For the same molecule, the TGI is more than 50.6 µM with CCRF-CEM leukemia; more than 47.1 µM in the test with SF-268 CNS; more than 41.4 µM with NCI-H460 lung; 61.5 µM with MALME-3M melanoma; more than 100 µM in the test on T-47D breast; 0.832 µM in the test on NCI-H226 lung. The TGI in the test on RPMI-8226 leukemia is 5.77 µM; in the test with LOX IMVI melanoma, 11.4 µM; in the test with UACC-62 melanoma, more than 100 µM.
